{"source": "patent US12295938B2", "about": "“Composition for treating castration-resistant prostate cancer, comprising quassinoids” (SAMSUNG LIFE PUBLIC WELFARE FOUNDATION, priority 2019, dated 2025)", "key": {"[1]": {"experiment": "Hematobiochemical toxicity assay in 22RV1 xenograft mice", "type": "in vivo, mouse", "conditions": "for ALT (ave) / AST (ave) / AST/ALT (ave) / CK (ave) / Cr (ave) / LDH (ave): mouse, in vivo", "description": "Briefly, in order to analyze toxicity of bruceantin in vivo, bloods from 22RV1 xenograft […] 3 days […] and oral administration at a dose of 2 mg/kg/every 2 days (p.o.), and the results are depicted in FIG. 10 and summarized in Table 13. • ALT: Alanine transaminase • AST: Aspartate transaminase • LDH: Lactate dehydrogenase • CR: Creatinine • CPK: Creatine phosphokinase"}, "[2]": {"tested_on": "hormone-dependent AR transcriptional activity", "experiment": "MMTV-LUC reporter assay in LNCaP cells, hormone-dependent AR transcriptional activity", "type": "cell-based", "conditions": "Homo sapiens, LNCaP, read-out: IC50 (nM) DHT+"}, "[3]": {"tested_on": "22RV1 metastasis mouse models", "type": "in vivo", "conditions": "2 mg/kg every 2 days oral", "description": "In order construct metastasis mouse models with the castration-resistant prostate cancer cell line 22RV1, the cells were subcutaneously injected into nude mice and the tumors was grown. Then, the tumors were harvested and injected into the left cardiac ventricle of nude mice to construct metastasis mouse models (see FIG. 13).\nIn the metastasis mouse models using the castration-resistant prostate cancer cell line 22RV1, bruceantin was analyzed for inhibitory effect on tumor metastasis and growth. In brief, the metastasis mice were monitored for inhibitory effects on tumor metastasis and growth and body weight while bruceantin was orally administered at a dose of 2 mg/kg/every 2 days thereto. The results are depicted in FIGS. 14a and 14b and Table 14."}, "[4]": {"conditions": "mouse, in vivo; for AST/ALT (ave): sc", "description": "FIG. 8b is a graph showing changes in blood AST/ALT ratio with doses of bruceantin subcutaneously injected to mice according to an embodiment of the present disclosure.\n(§1) While being subcutaneously injected with bruceantin at a dose of 1 mg/kg/every 3 days, 22RV1-xenografted mouse models were monitored for inhibitory effects on tumor growth and body weights."}, "[5]": {"tested_on": "22RV1 cells", "experiment": "MTT cell growth inhibition assay, 22RV1", "type": "cell-based", "conditions": "22RV1 cells", "quoted_text": "In brief, 22RV1 cells were seeded at a density of 1×10^4 cells/well into 96-well plates and treated with each drug at 6 concentrations ranging from 5 nM to 200 nM for 72 hours. Afterwards, an MTT dye solution and a solubilization solution/stop mix were added according to an MTT assay method, followed by reading absorbance at 570 nm to analyze cell viability and IC50."}, "[6]": {"tested_on": "AR-V7 transcriptional activity", "experiment": "MMTV-LUC luciferase reporter assay in 22RV1 cells, DHT− (screening and IC50)", "type": "cell-based", "quoted_text": "(§2) A library of antimalarial agents was screened using a luciferase reporter assay to measure changes in AR/AR-V7 transcriptional activity.\n(§3) Screening was made primarily with 10 μM of each drug."}, "[7]": {"conditions": "mouse, in vivo", "description": "Anatomical and histological toxicity assays were performed on livers, kidneys and spleens from the mice subcutaneously injected with bruceantin. In order to analyze in vivo toxicity of bruceantin, liver, kidney, and spleen tissues from 22RV1 xenograft mouse models were analyzed after subcutaneous injection at a dose of 1 mg/kg/every 3 days, and the results are depicted in FIGS. 11a and 11b.\nAnatomical and histological toxicity assays were performed on livers, kidneys and spleens from the mice to which bruceantin had been orally administered. In order to analyze in vivo toxicity of bruceantin, liver, kidney, and spleen tissues from 22RV1 xenograft mouse models were analyzed after oral administration at a dose of 2 mg/kg/every 2 days, and the results are depicted in FIGS. 12a and 12d."}, "[8]": {"tested_on": "22RV1 xenograft mouse models", "type": "in vivo", "design": "Tumor (ave): unit not given here", "conditions": "2 mg/kg every 2 days oral", "description": "In mouse models xenografted with the castration-resistant prostate cancer (CRPC) cell line 22RV1, bruceantin was analyzed for inhibitory effect on tumor growth. To this end, bruceantin was orally administered at a dose of 2 mg/kg/every 2 days to 22RV1 xenograft mouse models during which inhibition effects on tumor growth and body weights were monitored. The results are depicted in FIGS. 9a and 9b and Tables 11 and 12."}, "[9]": {"tested_on": "RWPE-1, DU145, PC3, LNCaP, C4-2B, C4-2B-MDVR and 22RV1 cells", "experiment": "MTT cell growth assay on normal prostate and prostate cancer cell lines", "type": "cell-based", "conditions": "1 nM to 5 nM, 72 hours; versus normal prostate cells and AR-negative prostate cancer cells", "description": "Bruceantin was analyzed for inhibitory activity against cell growth of normal prostate cells (RWPE-1), AR-negative prostate cancer cells (DU145, PC3), AR-positive hormone-dependent prostate cancer cells (LNCaP, C4-2B), AR- & AR-V7-positive castration-resistant prostate cancer cells (C4-2B-MDVR and 22RV1) by an MTT assay method.\nIn brief, the cell lines were each seeded at a density of 1×10^4 cells/well into 96-well plates and incubated with each of the drugs at three concentrations ranging from 1 nM to 5 nM for 72 hours. Afterwards, an MTT dye solution and a solubilization solution/stop mix were added according to an MTT assay method, followed by reading absorbance at 570 nm to analyze cell viability. The data are depicted in FIG. 6."}, "[10]": {"tested_on": "22RV1-xenografted mouse models", "type": "in vivo", "design": "Tumor (ave): unit not given here", "conditions": "for Tumor (ave): 1 mg/kg every 3 days subcutaneous", "description": "as §1"}, "[11]": {"tested_on": "AR transcriptional activity", "experiment": "MMTV-LUC luciferase reporter assay in 22RV1 cells, DHT+ (screening and IC50)", "type": "cell-based", "conditions": "Homo sapiens", "quoted_text": "as §2, §3"}}, "note": "Like-named read-outs stand apart in the source and are kept apart here."}
{"smiles": "COC(=O)[C@@]12OC[C@]34[C@H]([C@@H](O)[C@@H]1O)[C@@]1(C)CC(=O)C(O)=C(C)[C@@H]1C[C@H]3OC(=O)[C@H](OC(=O)/C=C(\\C)C(C)C)[C@@H]24", "note": "[Bruceantin, bruceantin]", "values": [{"measurement": "toxicity on blood indices", "setting": "[1]; compared to the control vehicle, both routes", "result": "no toxicity on blood indices"}, {"measurement": "ALT (ave)", "setting": "[1]; ip, 1 mg/kg", "result": 61.2}, {"measurement": "AST (ave)", "setting": "[1]; ip, 1 mg/kg", "result": 351}, {"measurement": "AST/ALT (ave)", "setting": "[1]; ip, 1 mg/kg", "result": 6.409}, {"measurement": "CK (ave)", "setting": "[1]; ip, 1 mg/kg", "result": 180}, {"measurement": "Cr (ave)", "setting": "[1]; ip, 1 mg/kg", "result": 0.156}, {"measurement": "LDH (ave)", "setting": "[1]; ip, 1 mg/kg", "result": 1098.6}, {"measurement": "ALT (ave)", "setting": "[1]; po, 2 mg/kg", "result": 72}, {"measurement": "AST (ave)", "setting": "[1]; po, 2 mg/kg", "result": 263.4}, {"measurement": "AST/ALT (ave)", "setting": "[1]; po, 2 mg/kg", "result": 3.658}, {"measurement": "CK (ave)", "setting": "[1]; po, 2 mg/kg", "result": 247.5}, {"measurement": "Cr (ave)", "setting": "[1]; po, 2 mg/kg", "result": 0.138}, {"measurement": "LDH (ave)", "setting": "[1]; po, 2 mg/kg", "result": 1456.8}, {"measurement": "IC50", "setting": "[2]", "result": 2.05, "unit": "nM"}, {"measurement": "inhibitory effect on tumor metastasis and growth", "setting": "[3]", "result": "inhibit metastatic tumor growth and the number of metastases"}, {"measurement": "effect on weights of the mice", "setting": "[4]; 1 mg/kg", "result": "no effect on weights of the mice"}, {"measurement": "hepatotoxicity", "setting": "[4]; 1 mg/kg", "result": "nor to cause hepatotoxicity"}, {"measurement": "AST/ALT (ave)", "setting": "[4]; 0.5 mg/kg", "result": 2.5}, {"measurement": "AST/ALT (ave)", "setting": "[4]; 1 mg/kg", "result": 3.3}, {"measurement": "fold more potent inhibitory activity against CRPC cell growth than ailanthone", "setting": "[5]; versus ailanthone", "result": 16, "unit": "fold"}, {"measurement": "IC50", "setting": "[5]; Homo sapiens, MTT, 72 hours, read-out: IC50 (22RV1 cell growth)", "result": 2.07, "unit": "nM"}, {"measurement": "activity at 0.1 µM", "setting": "[6]; Homo sapiens, 22RV1 cells, 0.1 uM, no DHT, control = 100", "result": "13.4 ± 2.5", "unit": "%"}, {"measurement": "activity at 1 µM", "setting": "[6]; Homo sapiens, 22RV1 cells, 1 uM, no DHT, control = 100", "result": "15.2 ± 1.6", "unit": "%"}, {"measurement": "activity at 10 µM", "setting": "[6]; Homo sapiens, 22RV1 cells, 10 uM, no DHT, control = 100", "result": "16.4 ± 2.3", "unit": "%"}, {"measurement": "IC50", "setting": "[6]; Homo sapiens, 22RV1 cells, AR-V7 transcriptional activity", "result": 3.14, "unit": "nM"}, {"measurement": "potency as inhibitor of AR/AR-V7 transcriptional activity compared with ailanthone", "setting": "[6]; in both CRPC 22RV1 cells and androgen-dependent LNCaP cells", "result": "more potent inhibitors against AR/AR-V7 transcriptional activity"}, {"measurement": "morphological and histological changes in liver, kidney, spleen", "setting": "[7]; po, 2 mg/kg", "result": "no morphological and histological changes (toxicity)"}, {"measurement": "morphological and histological changes in liver, kidney, spleen", "setting": "[7]; sc, 1 mg/kg", "result": "no morphological and histological changes (toxicity)"}, {"measurement": "inhibition of tumor growth", "setting": "[8]", "result": "effectively inhibit tumor growth"}, {"measurement": "Tumor (ave)", "setting": "[8]; Day 0", "result": 73.0453}, {"measurement": "Tumor (ave)", "setting": "[8]; Day 3", "result": 89.5358}, {"measurement": "Tumor (ave)", "setting": "[8]; Day 5", "result": 75.35}, {"measurement": "Tumor (ave)", "setting": "[8]; Day 7", "result": 88.811}, {"measurement": "Tumor (ave)", "setting": "[8]; Day 9", "result": 157.6571}, {"measurement": "Tumor (ave)", "setting": "[8]; Day 11", "result": 189.9515}, {"measurement": "Tumor (ave)", "setting": "[8]; Day 13", "result": 256.5573}, {"measurement": "Tumor (ave)", "setting": "[8]; Day 15", "result": 348.6721}, {"measurement": "Tumor (ave)", "setting": "[8]; Day 17", "result": 485.1394}, {"measurement": "Tumor (ave)", "setting": "[8]; Day 19", "result": 567.0807}, {"measurement": "Tumor (ave)", "setting": "[8]; Day 21", "result": 616.549}, {"measurement": "specificity of cell growth inhibition", "setting": "[9]", "result": "inhibitory activity specifically against AR- and AR-V7-positive prostate cancer cells"}, {"measurement": "Tumor (ave)", "setting": "[10]; Day 0", "result": 57.5}, {"measurement": "Tumor (ave)", "setting": "[10]; Day 3", "result": 81.7}, {"measurement": "Tumor (ave)", "setting": "[10]; Day 6", "result": 161.6}, {"measurement": "Tumor (ave)", "setting": "[10]; Day 9", "result": 250.2}, {"measurement": "Tumor (ave)", "setting": "[10]; Day 12", "result": 428.0}, {"measurement": "Tumor (ave)", "setting": "[10]; Day 15", "result": 676.3}, {"measurement": "Tumor (ave)", "setting": "[10]; Day 18", "result": 895.7}, {"measurement": "Tumor (ave)", "setting": "[10]; Day 21", "result": 938.5}, {"measurement": "Tumor (ave)", "setting": "[10]; Day 24", "result": 1005.7}, {"measurement": "inhibition of in vivo tumor growth of CRPC cells", "setting": "[10]; nude mice, 22RV1 cells, dose of 1 mg/kg", "result": "effectively inhibit in vivo tumor growth"}, {"measurement": "activity at 0.1 µM", "setting": "[11]; 0.1 uM, with DHT, control = 100", "result": "4 ± 0.5", "unit": "%"}, {"measurement": "activity at 1 µM", "setting": "[11]; 1 uM, with DHT, control = 100", "result": "4.4 ± 0.3", "unit": "%"}, {"measurement": "activity at 10 µM", "setting": "[11]; 10 uM, with DHT, control = 100", "result": "3.9 ± 0.4", "unit": "%"}, {"measurement": "IC50", "setting": "[11]; AR transcriptional activity", "result": 2.08, "unit": "nM"}]}
